Measured values reported in PubChem BioAssay AID1259411 (Chemical Carcinogenesis Research Information System (CCRIS), 2018).
Activity calls are given as the source filed them. The rule behind the calls is not given here.

Test system: rodent carcinogenicity bioassays, tumor incidence
Assay: CCRIS carcinogenicity studies
How it was run: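 Archive of carcinogenicity, mutagenicity, tumor promotion and tumor inhibition results drawn from journals, NCI reports and other sources, expert-reviewed; covers 1985-2011 and is no longer updated.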

CCC(=O)Oc1ccc(/C(CC)=C(\CC)c2ccc(OC(=O)CC)cc2)cc1
carcinogen call (Species: RAT, Route: SUBCUTANEOUS, Tumor Site: Type of Lesion: PITUITARY GLAND): active; positive

[O]=[Mo](=[O])=[O]
carcinogen call (Species: MOUSE, Strain/Sex: B6C3F1/FEMALE, Route: INHALATION, Dose: 0, 10, 30, 100 MG/M3 6 HR/D 5 D/WK FOR 105 WK (STUDY DURATION: 105 WK), Dose: 0, 10, 30, 100 MG/M3 6 HR/D 5 D/WK FOR 105 WK (STUDY DURATION: 105 WK), Tumor Site: Type of Lesion: LUNG: ALVEOLAR/BRONCHIOLAR ADENOMA, ALVEOLAR/BRONCHIOLAR ADENOMA OR CARCINOMA): active; positive
carcinogen call (Species: MOUSE, Strain/Sex: B6C3F1/MALE, Route: INHALATION, Dose: 0, 10, 30, 100 MG/M3 6 HR/D 5 D/WK FOR 105 WK (STUDY DURATION: 105 WK), Dose: 0, 10, 30, 100 MG/M3 6 HR/D 5 D/WK FOR 105 WK (STUDY DURATION: 105 WK), Tumor Site: Type of Lesion: LUNG: ALVEOLAR/BRONCHIOLAR CARCINOMA): active; positive
carcinogen call (Species: RAT, Strain/Sex: F344/FEMALE, Route: INHALATION, Dose: 0, 10, 30, 100 MG/M3 6 HR/D 5 D/WK FOR 106 WK (STUDY DURATION: 106 WK), Dose: 0, 10, 30, 100 MG/M3 6 HR/D 5 D/WK FOR 106 WK (STUDY DURATION: 106 WK)): inactive; negative
carcinogen call (Species: RAT, Strain/Sex: F344/MALE, Route: INHALATION, Dose: 0, 10, 30, 100 MG/M3 6 HR/D 5 D/WK FOR 106 WK (STUDY DURATION: 106 WK), Dose: 0, 10, 30, 100 MG/M3 6 HR/D 5 D/WK FOR 106 WK (STUDY DURATION: 106 WK), Tumor Site: Type of Lesion: LUNG: ALVEOLAR/BRONCHIOLAR ADENOMA, ALVEOLAR/BRONCHIOLAR CARCINOMA, ALVEOLAR/BRONCHIOLAR ADENOMA OR CARCINOMA): equivocal

C=CCCl
carcinogen call (Species: MOUSE, Strain/Sex: B6C3F1/FEMALE, Route: GAVAGE, Dose: 0, 129, 258 MG/KG IN CORN OIL 5 D/WK FOR 78 (STUDY DURATION: 92 WK), Dose: 0, 129, 258 MG/KG IN CORN OIL 5 D/WK FOR 78 (STUDY DURATION: 92 WK), Tumor Site: Type of Lesion: FORESTOMACH: SQUAMOUS CELL CARCINOMA OR PAPILLOMA): equivocal
carcinogen call (Species: MOUSE, Strain/Sex: B6C3F1/MALE, Route: GAVAGE, Dose: 0, 172, 199 MG/KG IN CORN OIL 5 D/WK FOR 78 (STUDY DURATION: 92 WK), Dose: 0, 172, 199 MG/KG IN CORN OIL 5 D/WK FOR 78 (STUDY DURATION: 92 WK), Tumor Site: Type of Lesion: FORESTOMACH: SQUAMOUS CELL CARCINOMA): equivocal
carcinogen call (Species: RAT, Strain/Sex: OSBORNE-MENDEL/FEMALE, Route: GAVAGE, Dose: 0, 55, 73 MG/KG N CORN OIL 5 D/WK FOR 78 (STUDY DURATION: 108-111 WK), Dose: 0, 55, 73 MG/KG N CORN OIL 5 D/WK FOR 78 (STUDY DURATION: 108-111 WK)): inactive; negative
carcinogen call (Species: RAT, Strain/Sex: OSBORNE-MENDEL/MALE, Route: GAVAGE, Dose: 0, 57, 77 MG/KG IN CORN OIL 5 D/WK FOR 78 (STUDY DURATION: 108-111 WK), Dose: 0, 57, 77 MG/KG IN CORN OIL 5 D/WK FOR 78 (STUDY DURATION: 108-111 WK)): inactive; negative

Cc1cc2ccccc2c2cc([N+](=O)[O-])c3ccccc3c12
carcinogen call (Species: MOUSE, Strain/Sex: SWISS/FEMALE, Route: INTRAPERITONEAL, Dose: 0, 100 NMOL (TOTAL DOSE) ADMINISTERED 1/7, 2/7 AND 4/7 ON DAY 1, 8 AND 15 RESPECTIVELY (STUDY DURATION: 32 WK), Tumor Site: Type of Lesion: LUNG: TUMOR): active; positive
carcinogen call (Species: MOUSE, Strain/Sex: SWISS/MALE, Route: INTRAPERITONEAL, Dose: 0, 100 NMOL (TOTAL DOSE) ADMINISTERED 1/7, 2/7 AND 4/7 ON DAY 1, 8 AND 15 RESPECTIVELY (STUDY DURATION: 32 WK), Tumor Site: Type of Lesion: LIVER: TUMOR, LUNG: TUMOR): active; positive

O=c1[nH]c(=O)n([C@H]2C[C@H](O)[C@@H](CO)O2)cc1Br
carcinogen call (Species: RAT, Strain/Sex: LIO/FEMALE, Route: SUBCUTANEOUS, Dose: 0, 3.2 MG ON DAY 1 OR ON DAYS 1 AND 3 OR ON DAYS 1, 3, 7, AND 21 FOLLOWING BIRTH FOR TOTAL DOSES OF 3.2, 6.4, OR 12.8 MG, Tumor Site: Type of Lesion: THYROID: ADENOMA, KIDNEY: MESENCHYMAL TUMORS): active; positive
carcinogen call (Species: RAT, Strain/Sex: LIO/MALE, Route: SUBCUTANEOUS, Dose: 0, 3.2 MG ON DAY 1 OR ON DAYS 1 AND 3 OR ON DAYS 1, 3, 7, AND 21 FOLLOWING BIRTH FOR TOTAL DOSES OF 3.2, 6.4, OR 12.8 MG, Tumor Site: Type of Lesion: TESTES: LEYDIGOMA): active; positive
